Data: BindingDB's records for doi:10.1016/j.bmcl.2004.09.002 (A.V. Bogatsky Physico-Chemical Institute of The National …, 2004)
Where a name gives a salt, the structure may show the parent alone.

Assay: In vitro inhibition of human platelet aggregation in suspension

SMILES | IC50 [nM]
O=C(O)CCNC(=O)CCC(=O)Nc1ccc2c(c1)CNC2 [3-[3-(2,3-Dihydro-1H-isoindol-5-ylcarbamoyl)-propionylamino]-propionic acid; hydrochloride] | 2090
O=C(O)CC(NC(=O)CCC(=O)Nc1ccc2c(c1)CNC2)c1ccccc1 (configuration not stated) [3-[3-(2,3-Dihydro-1H-isoindol-5-ylcarbamoyl)-propionylamino]-3-phenyl-propionic acid; hydrochloride] | 270
